Test results reported in patent EP4467141A1, “PYRAZOLO-QUINOLINES AS SELECTIVE INHIBITORS OF GENOTOXIC STRESS-INDUCED IKK/NF- KB PATHWAYS FOR CANCER THERAPY” (Max-Delbrück-Centrum für Molekulare Medizin in der …, priority 2023, dated 2024).

Legend:
Test in all cases: Kinase panel study
Type in all cases: biochemical
Settings in all cases: read-out: Percentage of inhibition; for inhibition at 1 µM: 1000nM; for inhibition at 10 µM: 10000nM
FGFR3 K650E = molecular target: T1, FGFR3 K650E (Homo sapiens, UniProt P22607, K650E)
T1 construct: purchased Thermo Fisher Scientific
T1 sequence (P22607 23-806 K650E): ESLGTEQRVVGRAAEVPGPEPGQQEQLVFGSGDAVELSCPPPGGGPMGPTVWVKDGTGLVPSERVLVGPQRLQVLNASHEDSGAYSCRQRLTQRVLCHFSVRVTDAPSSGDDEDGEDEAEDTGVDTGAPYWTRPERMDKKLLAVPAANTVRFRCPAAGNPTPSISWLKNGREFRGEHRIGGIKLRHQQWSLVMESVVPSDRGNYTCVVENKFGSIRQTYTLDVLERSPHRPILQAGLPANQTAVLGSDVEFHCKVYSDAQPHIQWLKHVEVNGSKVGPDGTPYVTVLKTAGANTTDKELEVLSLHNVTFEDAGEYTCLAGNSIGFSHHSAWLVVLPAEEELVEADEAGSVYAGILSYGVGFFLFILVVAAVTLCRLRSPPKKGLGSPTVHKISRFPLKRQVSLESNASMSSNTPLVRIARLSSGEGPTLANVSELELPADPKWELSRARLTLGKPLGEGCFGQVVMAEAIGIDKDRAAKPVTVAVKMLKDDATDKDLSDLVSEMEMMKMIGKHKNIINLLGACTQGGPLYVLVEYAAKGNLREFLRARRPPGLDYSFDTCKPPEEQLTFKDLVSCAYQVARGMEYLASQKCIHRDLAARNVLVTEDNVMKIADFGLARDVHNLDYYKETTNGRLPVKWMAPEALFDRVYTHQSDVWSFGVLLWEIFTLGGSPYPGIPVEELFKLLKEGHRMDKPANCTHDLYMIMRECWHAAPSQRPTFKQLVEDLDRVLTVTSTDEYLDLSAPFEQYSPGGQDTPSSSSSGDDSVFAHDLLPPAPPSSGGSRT
In short: (§1)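 Compounds were tested in vitro against the kinase panel by a service lab. Assays followed standard ZLyte or Adapta protocols. Activity was recorded as % inhibition at 10 µM or 1 µM, with IC50 values where determined.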

FGFR1 = molecular target: T2, FGFR1 (Homo sapiens, UniProt P11362)
T2 construct: purchased Thermo Fisher Scientific
In short: as §1

RET Y791F = molecular target: T3, RET Y791F (Homo sapiens, UniProt P07949, Y791F)
T3 construct: purchased Thermo Fisher Scientific
T3 sequence (P07949 29-1114 Y791F): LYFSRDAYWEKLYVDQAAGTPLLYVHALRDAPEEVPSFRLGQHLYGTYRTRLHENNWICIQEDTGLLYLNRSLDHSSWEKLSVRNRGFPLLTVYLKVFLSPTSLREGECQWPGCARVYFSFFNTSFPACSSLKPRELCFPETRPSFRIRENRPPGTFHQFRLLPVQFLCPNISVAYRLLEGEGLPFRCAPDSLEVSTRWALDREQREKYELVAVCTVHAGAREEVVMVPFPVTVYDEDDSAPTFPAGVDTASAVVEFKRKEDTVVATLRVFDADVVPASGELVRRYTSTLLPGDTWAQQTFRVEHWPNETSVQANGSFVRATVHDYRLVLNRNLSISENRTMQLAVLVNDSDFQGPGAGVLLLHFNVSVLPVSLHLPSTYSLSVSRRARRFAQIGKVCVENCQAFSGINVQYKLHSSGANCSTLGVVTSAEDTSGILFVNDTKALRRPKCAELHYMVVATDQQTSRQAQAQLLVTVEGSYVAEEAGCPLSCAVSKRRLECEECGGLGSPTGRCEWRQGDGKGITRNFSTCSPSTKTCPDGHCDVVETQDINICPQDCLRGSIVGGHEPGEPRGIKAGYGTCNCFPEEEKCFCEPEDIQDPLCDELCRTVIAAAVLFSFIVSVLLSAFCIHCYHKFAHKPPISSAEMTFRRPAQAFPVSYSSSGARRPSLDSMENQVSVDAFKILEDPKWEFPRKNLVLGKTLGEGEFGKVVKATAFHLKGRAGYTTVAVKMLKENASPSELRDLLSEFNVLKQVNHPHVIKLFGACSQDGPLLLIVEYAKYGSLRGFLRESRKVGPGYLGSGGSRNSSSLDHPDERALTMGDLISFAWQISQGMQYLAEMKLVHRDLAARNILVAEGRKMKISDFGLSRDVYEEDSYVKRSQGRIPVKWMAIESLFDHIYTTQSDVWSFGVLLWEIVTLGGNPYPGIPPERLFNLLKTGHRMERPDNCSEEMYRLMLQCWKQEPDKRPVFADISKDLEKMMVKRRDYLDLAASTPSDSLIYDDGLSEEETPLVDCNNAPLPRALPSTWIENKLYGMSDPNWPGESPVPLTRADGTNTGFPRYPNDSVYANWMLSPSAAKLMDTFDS
In short: as §1

MAPKAPK3 = molecular target: T4, MAPKAPK3 (Homo sapiens, UniProt Q16644)
T4 construct: purchased Thermo Fisher Scientific
In short: as §1

ITK = molecular target: T5, ITK (Homo sapiens, UniProt Q08881)
T5 construct: purchased Thermo Fisher Scientific
T5 sequence (Q08881 1-620): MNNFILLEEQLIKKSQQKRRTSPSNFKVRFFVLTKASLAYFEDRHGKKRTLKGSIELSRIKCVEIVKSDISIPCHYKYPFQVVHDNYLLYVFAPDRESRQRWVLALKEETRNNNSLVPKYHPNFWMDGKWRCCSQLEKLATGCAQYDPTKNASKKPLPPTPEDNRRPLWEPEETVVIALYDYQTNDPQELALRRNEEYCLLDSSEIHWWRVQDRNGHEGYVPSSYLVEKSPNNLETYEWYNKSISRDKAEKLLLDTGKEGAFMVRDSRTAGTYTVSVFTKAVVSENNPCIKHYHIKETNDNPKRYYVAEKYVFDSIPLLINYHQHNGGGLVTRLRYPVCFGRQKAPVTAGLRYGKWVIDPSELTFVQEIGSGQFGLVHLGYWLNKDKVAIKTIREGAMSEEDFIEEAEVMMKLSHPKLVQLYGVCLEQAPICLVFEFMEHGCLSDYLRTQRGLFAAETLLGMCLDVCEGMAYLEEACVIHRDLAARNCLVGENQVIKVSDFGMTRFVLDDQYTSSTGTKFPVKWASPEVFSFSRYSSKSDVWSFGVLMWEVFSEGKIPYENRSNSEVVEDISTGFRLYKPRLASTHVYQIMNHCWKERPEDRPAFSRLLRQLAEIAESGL
In short: as §1

SRC N1 = molecular target: T6, SRC N1 (Homo sapiens, UniProt P12931)
T6 construct: purchased Thermo Fisher Scientific
T6 sequence (P12931 1-542 isoform P12931-2): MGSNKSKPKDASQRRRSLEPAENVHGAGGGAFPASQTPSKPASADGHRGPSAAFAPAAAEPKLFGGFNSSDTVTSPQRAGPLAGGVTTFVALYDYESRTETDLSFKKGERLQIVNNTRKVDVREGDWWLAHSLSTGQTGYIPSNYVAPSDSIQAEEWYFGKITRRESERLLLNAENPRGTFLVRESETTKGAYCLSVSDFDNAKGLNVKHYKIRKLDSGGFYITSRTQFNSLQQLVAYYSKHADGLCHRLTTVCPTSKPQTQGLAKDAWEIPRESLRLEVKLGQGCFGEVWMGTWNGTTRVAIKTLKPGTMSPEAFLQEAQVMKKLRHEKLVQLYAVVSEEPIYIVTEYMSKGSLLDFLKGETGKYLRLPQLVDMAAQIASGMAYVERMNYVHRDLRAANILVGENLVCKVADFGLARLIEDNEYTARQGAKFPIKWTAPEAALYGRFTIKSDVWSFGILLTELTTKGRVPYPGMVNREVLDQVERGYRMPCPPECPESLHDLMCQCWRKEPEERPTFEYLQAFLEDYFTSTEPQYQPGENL
In short: as §1

EGFR (ErbB1) G719S = molecular target: T7, EGFR (ErbB1) G719S (Homo sapiens, UniProt P00533, G719S)
T7 construct: purchased Thermo Fisher Scientific
T7 sequence (P00533 25-1210 G719S): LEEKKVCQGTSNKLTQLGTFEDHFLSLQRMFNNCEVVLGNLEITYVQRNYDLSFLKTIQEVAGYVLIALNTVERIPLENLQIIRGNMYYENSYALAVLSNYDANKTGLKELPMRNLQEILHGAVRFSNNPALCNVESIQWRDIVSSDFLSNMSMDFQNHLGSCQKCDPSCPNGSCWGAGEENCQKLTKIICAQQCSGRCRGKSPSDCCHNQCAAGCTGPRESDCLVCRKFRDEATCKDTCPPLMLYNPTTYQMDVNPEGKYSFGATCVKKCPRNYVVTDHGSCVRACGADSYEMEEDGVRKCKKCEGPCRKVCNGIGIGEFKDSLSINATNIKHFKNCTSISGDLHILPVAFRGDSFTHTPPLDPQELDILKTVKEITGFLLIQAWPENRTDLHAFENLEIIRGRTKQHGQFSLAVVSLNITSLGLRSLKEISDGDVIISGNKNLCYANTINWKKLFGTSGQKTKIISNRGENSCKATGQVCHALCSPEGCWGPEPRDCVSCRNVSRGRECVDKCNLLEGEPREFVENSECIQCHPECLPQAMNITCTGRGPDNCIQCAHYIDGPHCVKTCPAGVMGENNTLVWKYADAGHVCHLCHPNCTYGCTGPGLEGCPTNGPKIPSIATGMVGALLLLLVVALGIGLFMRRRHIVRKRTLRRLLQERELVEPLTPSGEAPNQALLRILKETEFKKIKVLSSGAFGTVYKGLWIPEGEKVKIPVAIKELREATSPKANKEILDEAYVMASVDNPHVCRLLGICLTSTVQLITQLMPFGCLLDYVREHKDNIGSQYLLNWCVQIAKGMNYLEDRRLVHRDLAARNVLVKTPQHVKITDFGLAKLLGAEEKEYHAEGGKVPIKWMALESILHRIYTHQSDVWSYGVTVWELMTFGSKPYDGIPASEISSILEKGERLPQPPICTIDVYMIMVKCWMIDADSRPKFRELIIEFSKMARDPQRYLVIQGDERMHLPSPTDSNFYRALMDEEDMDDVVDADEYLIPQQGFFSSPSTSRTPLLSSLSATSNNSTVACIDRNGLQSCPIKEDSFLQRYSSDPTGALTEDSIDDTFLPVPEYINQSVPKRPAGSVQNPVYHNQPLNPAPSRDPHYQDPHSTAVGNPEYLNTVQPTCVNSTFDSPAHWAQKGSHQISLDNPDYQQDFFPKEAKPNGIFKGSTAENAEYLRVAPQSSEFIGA
In short: as §1

AMPK (A2/B2/G3) = molecular target: T8, AMPK (A2/B2/G3) (Homo sapiens, UniProt P54646)
T8 construct: purchased Thermo Fisher Scientific
T8 sequence (P54646 whole entry): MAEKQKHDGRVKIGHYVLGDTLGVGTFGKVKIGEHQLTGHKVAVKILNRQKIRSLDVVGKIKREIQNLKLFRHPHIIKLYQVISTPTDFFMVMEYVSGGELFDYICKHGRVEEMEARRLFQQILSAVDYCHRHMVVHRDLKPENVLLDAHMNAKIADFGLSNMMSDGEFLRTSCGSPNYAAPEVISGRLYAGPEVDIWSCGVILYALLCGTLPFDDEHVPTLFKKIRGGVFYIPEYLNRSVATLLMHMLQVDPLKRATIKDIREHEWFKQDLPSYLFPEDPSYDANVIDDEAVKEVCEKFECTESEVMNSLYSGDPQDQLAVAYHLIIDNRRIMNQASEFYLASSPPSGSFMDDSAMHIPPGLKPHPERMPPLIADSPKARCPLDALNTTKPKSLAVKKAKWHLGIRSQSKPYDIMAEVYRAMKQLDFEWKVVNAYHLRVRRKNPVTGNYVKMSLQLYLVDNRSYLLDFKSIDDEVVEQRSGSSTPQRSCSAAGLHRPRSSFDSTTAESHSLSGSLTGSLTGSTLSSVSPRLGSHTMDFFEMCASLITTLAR
T8 sequence (O43741 whole entry partner): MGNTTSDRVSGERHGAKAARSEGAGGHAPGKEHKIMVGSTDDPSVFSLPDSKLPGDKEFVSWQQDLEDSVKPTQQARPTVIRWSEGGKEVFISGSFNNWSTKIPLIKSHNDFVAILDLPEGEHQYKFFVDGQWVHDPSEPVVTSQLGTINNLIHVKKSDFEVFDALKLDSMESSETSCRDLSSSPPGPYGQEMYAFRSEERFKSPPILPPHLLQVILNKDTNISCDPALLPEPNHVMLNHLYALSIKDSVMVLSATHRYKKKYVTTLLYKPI
T8 sequence (Q9UGI9 whole entry partner): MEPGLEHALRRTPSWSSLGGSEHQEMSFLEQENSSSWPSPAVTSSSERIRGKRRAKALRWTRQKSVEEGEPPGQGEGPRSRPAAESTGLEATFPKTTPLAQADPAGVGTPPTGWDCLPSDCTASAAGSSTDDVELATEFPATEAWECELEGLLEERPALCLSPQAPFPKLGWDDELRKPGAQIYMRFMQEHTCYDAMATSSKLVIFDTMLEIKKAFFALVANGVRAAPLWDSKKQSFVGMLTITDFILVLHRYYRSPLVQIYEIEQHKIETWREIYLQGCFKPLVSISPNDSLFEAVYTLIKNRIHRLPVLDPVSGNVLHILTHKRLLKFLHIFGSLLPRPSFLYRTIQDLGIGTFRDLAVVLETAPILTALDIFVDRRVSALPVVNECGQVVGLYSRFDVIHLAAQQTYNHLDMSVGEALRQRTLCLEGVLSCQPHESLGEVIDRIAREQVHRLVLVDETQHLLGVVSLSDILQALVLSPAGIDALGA
In short: as §1

PHKG2 = molecular target: T9, PHKG2 (Homo sapiens, UniProt P15735)
T9 construct: purchased Thermo Fisher Scientific
T9 sequence (P15735 1-406): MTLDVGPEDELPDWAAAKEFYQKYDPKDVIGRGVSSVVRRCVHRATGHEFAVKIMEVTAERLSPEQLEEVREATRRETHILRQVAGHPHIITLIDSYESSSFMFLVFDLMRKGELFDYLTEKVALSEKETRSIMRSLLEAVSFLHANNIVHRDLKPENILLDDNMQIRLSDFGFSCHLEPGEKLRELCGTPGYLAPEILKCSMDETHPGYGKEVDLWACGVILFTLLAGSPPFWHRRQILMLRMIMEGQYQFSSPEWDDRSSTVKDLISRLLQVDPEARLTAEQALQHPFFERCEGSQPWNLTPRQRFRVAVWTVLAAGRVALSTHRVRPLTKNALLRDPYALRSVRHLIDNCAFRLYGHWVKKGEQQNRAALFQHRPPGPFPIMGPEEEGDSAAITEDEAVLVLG
In short: as §1

Row | Structure (SMILES) | inhibition at 1 µM (FGFR3 K650E) [%] | inhibition at 10 µM (FGFR3 K650E) [%] | inhibition at 1 µM (FGFR1) [%] | inhibition at 10 µM (FGFR1) [%] | inhibition at 1 µM (RET Y791F) [%] | inhibition at 10 µM (RET Y791F) [%] | inhibition at 1 µM (MAPKAPK3) [%] | inhibition at 10 µM (MAPKAPK3) [%] | inhibition at 1 µM (ITK) [%] | inhibition at 10 µM (ITK) [%] | inhibition at 1 µM (SRC N1) [%] | inhibition at 10 µM (SRC N1) [%] | inhibition at 1 µM (EGFR (ErbB1) G719S) [%] | inhibition at 10 µM (EGFR (ErbB1) G719S) [%] | inhibition at 1 µM (AMPK (A2/B2/G3)) [%] | inhibition at 10 µM (AMPK (A2/B2/G3)) [%] | inhibition at 1 µM (PHKG2) [%] | inhibition at 10 µM (PHKG2) [%]
1 | COc1ccc2c(c1OC)c(=O)n1c3ccc(O)cc3c3ccnc2c31 [MW01, 5-Hydroxy-10,11-dimethoxy-9H-benzo[c]indolo[3,2,1-ij][1,5]naphthyridin-9-one] | 6 | 16 | 6 | 5 | 17 | 32 | 8 | 24 | 0 | -2 | 15 | 25 | 5 | 14 | 8 | 18 | 6 | 8
2 | COc1ccc2cc3c(N)nn(C(=O)c4cccc(N(C)C)c4)c3nc2c1 [MW05, (3-Amino-7-methoxypyrazolo[3,4-b]quinolin-1-yl)-[3-(dimethylamino)phenyl]methanone] | 8 | -3 | -1 | -7 | 5 | 7 | 10 | 3 | -10 | -6 | 16 | 14 | 4 | -5 | 4 | -4 | 6 | -3
